Several values for one entry are separate records, joined by “and”; a condition that tells them apart may be missing. Identical values can stand only once. Like-named read-outs stand apart in the source and are kept apart here.
Columns and labels:
[1] = target: TcTryS (Trypanosoma cruzi trypanothione synthetase) (Trypanosoma cruzi, UniProt Q9GT49); assay: biochemical; type: biochemical; conditions: read-out: % TcTryS inhibition ± 2σn-1
[2] = target: LiTryS (Leishmania infantum trypanothione synthetase) (Leishmania infantum, UniProt A4I2Z3); assay: biochemical; type: biochemical
Chain of LiTryS (Leishmania infantum trypanothione synthetase) (A4I2Z3 1-652): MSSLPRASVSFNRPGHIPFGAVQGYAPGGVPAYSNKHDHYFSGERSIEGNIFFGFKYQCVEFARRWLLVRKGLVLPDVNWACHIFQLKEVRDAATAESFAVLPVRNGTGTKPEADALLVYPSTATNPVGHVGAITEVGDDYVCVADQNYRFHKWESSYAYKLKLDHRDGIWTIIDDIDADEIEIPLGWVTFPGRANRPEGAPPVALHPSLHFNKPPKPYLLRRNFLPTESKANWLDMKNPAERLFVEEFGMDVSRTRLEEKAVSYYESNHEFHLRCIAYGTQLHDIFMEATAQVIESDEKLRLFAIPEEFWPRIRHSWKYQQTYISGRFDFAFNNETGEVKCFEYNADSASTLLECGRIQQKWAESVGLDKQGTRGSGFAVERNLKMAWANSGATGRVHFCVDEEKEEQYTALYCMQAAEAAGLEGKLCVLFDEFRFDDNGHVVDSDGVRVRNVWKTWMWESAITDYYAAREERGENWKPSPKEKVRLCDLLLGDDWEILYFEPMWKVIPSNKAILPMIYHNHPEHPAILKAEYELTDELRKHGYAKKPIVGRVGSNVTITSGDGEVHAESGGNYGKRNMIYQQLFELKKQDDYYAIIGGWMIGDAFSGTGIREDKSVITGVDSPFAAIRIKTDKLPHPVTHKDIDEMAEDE

[3] = target: TbTryS (Trypanosoma brucei trypanothione synthetase) (Trypanosoma brucei brucei, UniProt Q8IEX1); assay: biochemical
Chain of TbTryS (Trypanosoma brucei trypanothione synthetase) (Q8IEX1 1-627): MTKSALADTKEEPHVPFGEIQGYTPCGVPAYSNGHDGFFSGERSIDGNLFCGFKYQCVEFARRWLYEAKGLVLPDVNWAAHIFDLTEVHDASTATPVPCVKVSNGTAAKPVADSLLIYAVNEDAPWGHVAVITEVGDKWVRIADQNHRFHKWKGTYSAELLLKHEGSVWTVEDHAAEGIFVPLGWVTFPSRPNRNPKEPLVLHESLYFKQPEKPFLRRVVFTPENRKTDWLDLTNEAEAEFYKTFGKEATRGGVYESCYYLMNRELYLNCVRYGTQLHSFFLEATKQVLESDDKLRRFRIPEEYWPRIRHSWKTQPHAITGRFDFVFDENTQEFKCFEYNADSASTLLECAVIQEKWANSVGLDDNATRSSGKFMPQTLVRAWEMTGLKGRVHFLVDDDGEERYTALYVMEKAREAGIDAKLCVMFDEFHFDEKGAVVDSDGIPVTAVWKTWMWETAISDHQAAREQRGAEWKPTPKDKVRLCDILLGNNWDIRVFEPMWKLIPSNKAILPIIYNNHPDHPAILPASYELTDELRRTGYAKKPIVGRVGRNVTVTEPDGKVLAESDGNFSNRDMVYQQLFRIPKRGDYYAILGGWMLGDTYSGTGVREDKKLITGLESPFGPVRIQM

[4] = system: Leishmania infantum promastigotes; set-up: method as in PMID 24853758; conditions: ref [20], read-out: L. infantum EC50; cited from earlier work
LiTryS = system: LiTryS; set-up: method as in PMID 24853758; conditions: ref [20]; cited from earlier work
[5] = system: bloodstream Trypanosoma brucei brucei; assay: Proliferation/cytotoxicity assay, infective T. b. brucei; type: cell-based; conditions: 24 h, read-out: T. b. Brucei EC50
[6] = system: Leishmania infantum promastigotes; assay: Proliferation/cytotoxicity assay, L. infantum promastigotes; type: cell-based; conditions: 24 h, promastigotes
Method: All assays were performed in duplicates or triplicates.
Leishmania infantum promastigotes were cultured at 28 °C in RPMI 1640 Glutamax supplemented with 10% (v/v) FCS, 10 U ml^-1 penicillin, 10 µg ml^-1 streptomycin and 25 mM HEPES sodium salt pH 7.4. […] Twenty four hours later the number of living parasites was estimated by cell counting under the light microscope using a Neubauer chamber and viability calculated as percentage relative to cultures incubated with the vehicle alone.

[7] = system: L. infantum promastigotes; assay: Analysis of intracellular thiols; type: cell-based, Leishmania infantum
Method: The method is a modified version of that described in [62]. Briefly, L. infantum promastigotes or bloodstream T. b. brucei (WT and RNAi-TryS cell lines) treated or not with compounds (MOL2008 or EAP1-47, respectively) for 24 h were harvested by centrifugation (2000g, 10 min at 4°C), washed twice with PBS and resuspended at a density of 10^8 cells/0.1 mL of 40 mM Hepes pH 8.0 and 2 mM mono-bromobimane in methanol. After incubation at 70°C for 3 minutes, the samples were cooled on ice, then added of 100 μL 4 M methanesulfonic acid (adjusted to pH 1.5 with LiOH) and incubated overnight at 4°C. The supernatant containing the derivatized low molecular mass thiols was centrifuged at 13000g 40 min at 0°C.

TryS from C. fasciculata = system: TryS from C. fasciculata; set-up: method as in earlier work; conditions: ref [10]; cited from earlier work
[8] = n = 4, read-out: LiTryS IC50, representative dose-response plot

Chain of TcTryS (Trypanosoma cruzi trypanothione synthetase) (Q9GT49 whole entry): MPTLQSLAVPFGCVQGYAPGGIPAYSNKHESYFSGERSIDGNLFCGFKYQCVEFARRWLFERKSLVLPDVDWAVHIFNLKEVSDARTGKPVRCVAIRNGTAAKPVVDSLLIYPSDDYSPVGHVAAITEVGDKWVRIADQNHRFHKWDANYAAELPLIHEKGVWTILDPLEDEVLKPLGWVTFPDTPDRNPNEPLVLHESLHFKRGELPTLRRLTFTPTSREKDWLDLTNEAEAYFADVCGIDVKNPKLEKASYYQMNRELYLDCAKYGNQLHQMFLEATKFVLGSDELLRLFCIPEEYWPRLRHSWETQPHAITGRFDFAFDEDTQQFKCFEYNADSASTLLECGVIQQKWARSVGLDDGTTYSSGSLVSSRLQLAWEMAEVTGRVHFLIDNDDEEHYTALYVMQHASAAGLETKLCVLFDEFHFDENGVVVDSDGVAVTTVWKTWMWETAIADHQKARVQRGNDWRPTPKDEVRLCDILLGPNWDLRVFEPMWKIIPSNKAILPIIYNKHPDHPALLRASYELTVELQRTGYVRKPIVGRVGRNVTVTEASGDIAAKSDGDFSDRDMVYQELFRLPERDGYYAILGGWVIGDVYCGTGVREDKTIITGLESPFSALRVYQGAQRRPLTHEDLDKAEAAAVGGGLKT

Structure (SMILES) | inhibition at 30 µM [1] [%] | slope plot, LiTryS, representative dose-response plot [2] | IC50 [2, 8] [µM] | IC50 ([2]; read-out: LiTryS IC50) [µM] | IC50 [3] | inhibition at 75 µM [3] [%] | EC50 [4] [µM] | IC50 (LiTryS) [µM] | inhibition at 30 µM ([3]; read-out: % TbTryS inhibition ± 2σn-1) [%] | EC50 [5] [µM] | EC50 ([6]; Leishmania infantum) [µM] | EC50 [6] [µM] | decrease of T(SH)2 content [7] [%] | IC50 (TryS from C. fasciculata) [µM]
CNCCNC(=O)CN1C(=O)Cc2c([nH]c3cc(C(F)(F)F)ccc23)-c2ccccc21 [FS-554] | ~50 | 0.37 ± 0.03 | 0.32 ± 0.73 | 0.35 | ~75 µM | ~50 | 112.3 ± 1.1 | 0.35 |  |  |  |  |  | 
CNCCNC(=O)CN1C(=O)Cc2c([nH]c3ccc(Br)cc23)-c2ccc(Cl)cc21 [MOL2008] | ~50 | 0.38 ± 0.03 | 0.14 ± 0.03 | < 1 | 30 µM and ~30 µM and ≤ 30 µM |  |  |  | ~50 | 4.3 ± 0.7 | 12 | 12.6 ± 1.6 | ≥ 90 | 0.03

Source: paper PMC4829233, “Identification of Novel Chemical Scaffolds Inhibiting Trypanothione Synthetase from Pathogenic Trypanosomatids” (PLoS Neglected Tropical Diseases, 2016)
